# Experimental data taken from ChEMBL document CHEMBL2150935, “Synthesis, biological evaluation and chemometric analysis of indazole derivatives. 1,2-Disubstituted 5-nitroindazolinones, new prototypes of antichagasic drug” (Eur J Med Chem, 2012).
# Assays:
# [1] = Growth inhibition of mouse J774 cells at 16 uM after 24 hrs by resazurin reduction assay; type: cell-based; conditions: read-out: GI
# [2] = Growth inhibition of mouse J774 cells at 64 uM after 24 hrs by resazurin reduction assay; type: cell-based; conditions: read-out: GI
# [3] = Growth inhibition of mouse J774 cells at 1.25 uM after 24 hrs by resazurin reduction assay; type: cell-based; conditions: read-out: GI
# [4] = test system: Trypanosoma cruzi; assay: Growth inhibition of epimastigote form of Trypanosoma cruzi CL-B5 at 8 uM after 72 hrs by lacZ reporter gene assay; type: functional; conditions: CL-B5, 72 h, read-out: GI
# [5] = Growth inhibition of mouse J774 cells at 5 uM after 24 hrs by resazurin reduction assay; type: cell-based; conditions: read-out: GI
# [6] = test system: Trypanosoma cruzi; assay: Growth inhibition of epimastigote form of Trypanosoma cruzi CL-B5 at 2.5 uM after 72 hrs by lacZ reporter gene assay; type: functional; conditions: CL-B5, 72 h, read-out: GI
# [7] = Growth inhibition of mouse J774 cells at 8 uM after 24 hrs by resazurin reduction assay; type: cell-based; conditions: read-out: GI
# [8] = test system: Trypanosoma cruzi; assay: Growth inhibition of epimastigote form of Trypanosoma cruzi CL-B5 at 1.25 uM after 72 hrs by lacZ reporter gene assay; type: functional; conditions: CL-B5, 72 h, read-out: GI
# [9] = Growth inhibition of mouse J774 cells at 128 uM after 24 hrs by resazurin reduction assay; type: cell-based; conditions: read-out: GI
# [10] = test system: Trypanosoma cruzi; assay: Growth inhibition of epimastigote form of Trypanosoma cruzi CL-B5 at 128 uM after 72 hrs by lacZ reporter gene assay; type: functional; conditions: CL-B5, 72 h, read-out: GI
# [11] = Growth inhibition of mouse J774 cells at 2.5 uM after 24 hrs by resazurin reduction assay; type: cell-based; conditions: read-out: GI
# [12] = test system: Trypanosoma cruzi; assay: Growth inhibition of epimastigote form of Trypanosoma cruzi CL-B5 at 32 uM after 72 hrs by lacZ reporter gene assay; type: functional; conditions: CL-B5, 72 h, read-out: GI
# [13] = Growth inhibition of mouse J774 cells at 32 uM after 24 hrs by resazurin reduction assay; type: cell-based; conditions: read-out: GI
# [14] = test system: Trypanosoma cruzi; assay: Growth inhibition of epimastigote form of Trypanosoma cruzi CL-B5 at 0.625 uM after 72 hrs by lacZ reporter gene assay; type: functional; conditions: CL-B5, 72 h, read-out: GI
# [15] = Growth inhibition of mouse J774 cells at 0.625 uM after 24 hrs by resazurin reduction assay; type: cell-based; conditions: read-out: GI
# [16] = test system: Trypanosoma cruzi; assay: Growth inhibition of epimastigote form of Trypanosoma cruzi CL-B5 at 256 uM after 72 hrs by lacZ reporter gene assay; type: functional; conditions: CL-B5, 72 h, read-out: GI
# [17] = Growth inhibition of mouse J774 cells at 256 uM after 24 hrs by resazurin reduction assay; type: cell-based; conditions: read-out: GI
# [18] = test system: Trypanosoma cruzi; assay: Growth inhibition of epimastigote form of Trypanosoma cruzi CL-B5 after 72 hrs by lacZ reporter gene assay; type: functional, organism-based; conditions: CL-B5, 72 h
# [19] = test system: Trypanosoma cruzi; assay: Growth inhibition of epimastigote form of Trypanosoma cruzi CL-B5 at 16 uM after 72 hrs by lacZ reporter gene assay; type: functional; conditions: CL-B5, 72 h, read-out: GI
# [20] = test system: Trypanosoma cruzi; assay: Growth inhibition of epimastigote form of Trypanosoma cruzi CL-B5 at 5 uM after 72 hrs by lacZ reporter gene assay; type: functional; conditions: CL-B5, 72 h, read-out: GI
# [21] = test system: Trypanosoma cruzi; assay: Growth inhibition of epimastigote form of Trypanosoma cruzi CL-B5 at 64 uM after 72 hrs by lacZ reporter gene assay; type: functional; conditions: CL-B5, 72 h, read-out: GI
# [22] = test system: Trypanosoma cruzi; assay: Growth inhibition of epimastigote form of Trypanosoma cruzi CL-B5 at 2 uM after 72 hrs by lacZ reporter gene assay; type: functional; conditions: CL-B5, 72 h, read-out: GI
# [23] = Growth inhibition of mouse J774 cells at 4 uM after 24 hrs by resazurin reduction assay; type: cell-based; conditions: read-out: GI
# [24] = Growth inhibition of mouse J774 cells at 1 uM after 24 hrs by resazurin reduction assay; type: cell-based; conditions: read-out: GI
# [25] = test system: Trypanosoma cruzi; assay: Growth inhibition of epimastigote form of Trypanosoma cruzi CL-B5 at 4 uM after 72 hrs by lacZ reporter gene assay; type: functional; conditions: CL-B5, 72 h, read-out: GI
# [26] = test system: Trypanosoma cruzi; assay: Growth inhibition of epimastigote form of Trypanosoma cruzi CL-B5 at 1 uM after 72 hrs by lacZ reporter gene assay; type: functional; conditions: CL-B5, 72 h, read-out: GI
# [27] = Growth inhibition of mouse J774 cells at 2 uM after 24 hrs by resazurin reduction assay; type: cell-based; conditions: read-out: GI
Compound,"inhibition at 24 h, 16 µM [1]","inhibition at 24 h, 64 µM [2]",inhibition of growth at 8 µM [4],"inhibition at 24 h, 8 µM [7]","inhibition at 24 h, 128 µM [9]",inhibition of growth at 128 µM [10],inhibition of growth at 32 µM [12],"inhibition at 24 h, 32 µM [13]",inhibition of growth at 256 µM [16],"inhibition at 24 h, 256 µM [17]",IC50 [18],inhibition of growth at 16 µM [19],inhibition of growth at 64 µM [21],also measured
CCCCn1c2ccc([N+](=O)[O-])cc2c(=O)n1Cc1ccccc1,7.92%,33.3%,93%,7.65%,67.5%,88.3%,100%,27.1%,84%,81.6%,1.17 µM,100%,82.8%,"inhibition at 24 h, 1.25 µM [3]: 5.37%; inhibition at 24 h, 5 µM [5]: 2.36%; inhibition of growth at 2.5 µM [6]: 58.2%; inhibition of growth at 1.25 µM [8]: 55.9%; inhibition at 24 h, 2.5 µM [11]: 1.92%; inhibition of growth at 0.625 µM [14]: 49.7%; inhibition at 24 h, 0.625 µM [15]: 0.14%; inhibition of growth at 5 µM [20]: 61.7%"
CC(C)n1c2ccc([N+](=O)[O-])cc2c(=O)n1Cc1ccccc1,0%,14.5%,80.3%,10.3%,0%,88.3%,100%,0%,90.4%,0%,2.39 µM,97.6%,87.6%,"inhibition of growth at 2 µM [22]: 37.4%; inhibition at 24 h, 4 µM [23]: 65.2%; inhibition at 24 h, 1 µM [24]: 5.87%; inhibition of growth at 4 µM [25]: 4.11%; inhibition of growth at 1 µM [26]: 28%; inhibition at 24 h, 2 µM [27]: 8.76%"
CC1CS(=O)(=O)CCN1/N=C/c1ccc([N+](=O)[O-])o1 (stereo not drawn) [NIFURTIMOX],–,0%,–,–,5%,97.1%,–,–,100%,25%,3.61 µM,–,91.6%,–
CCCn1c2ccc([N+](=O)[O-])cc2c(=O)n1Cc1ccccc1,0%,0%,100%,0%,0%,92.8%,100%,0%,94.8%,0%,0.93 µM,100%,92.7%,"inhibition at 24 h, 1.25 µM [3]: 0.14%; inhibition at 24 h, 5 µM [5]: 0.64%; inhibition of growth at 2.5 µM [6]: 59.8%; inhibition of growth at 1.25 µM [8]: 59.5%; inhibition at 24 h, 2.5 µM [11]: 0.85%; inhibition of growth at 0.625 µM [14]: 56.2%; inhibition at 24 h, 0.625 µM [15]: 4.18%; inhibition of growth at 5 µM [20]: 61.5%"
O=C(Cn1ccnc1[N+](=O)[O-])NCc1ccccc1 [BENZNIDAZOLE],–,13%,–,–,14.8%,79.8%,–,–,82%,13%,27.3 µM,–,71%,–
CC(C)n1c2ccc([N+](=O)[O-])cc2c(=O)n1C,–,0%,–,–,0%,10.5%,–,–,13.2%,0%,–,–,7.45%,–
CCCOc1c2cc([N+](=O)[O-])ccc2nn1Cc1ccccc1,–,0%,–,–,0%,26.1%,–,–,0%,0%,–,–,15.7%,–
CCCn1c2ccc([N+](=O)[O-])cc2c(=O)n1-c1ccccc1,–,0%,–,–,0%,76.5%,–,–,86.1%,0%,–,–,71.8%,–
